pEC50: −log10 of the molar value.
Columns and labels:
[1] = ELECTRON Grade 3/4 hematologic (laboratory) abnormalities; format: in vivo, human; conditions: Groups 1-6 (GT2/GT3 Tx-naive)
HCV GT2 or GT3 = assay: ELECTRON Phase 2a clinical study, treatment-naive GT2/GT3 (Groups 1-6, 10); format: in vivo, human; conditions: for HCV RNA (log10 IU/mL), mean: GT2/GT3 Tx-naive, N=10; for HCV RNA below LOD, %: Genotype 2/3 Treatment Naive (Groups 1-6); for % < LOD / n/N < LOD: Groups 1-5, GT2/GT3 Tx-naive
Description: In comparison, only 60% of treatment-naïve GT2/GT3 HCV patients receiving GS-7977 monotherapy achieved SVR-12.
Group 1: GS-7977 (400 mg QD) with RBV (1000/1200 mg BID) for 12 weeks (no peginterferon) (GT2/GT3 treatment-naïve); and
Groups 2, 3, 4: GS-7977 (400 mg QD) with RBV (1000/1200 mg BID) for 12 weeks and PEG (180 μg weekly) weeks 1-4 only/PEG (180 μg weekly) weeks 1-8 only/PEG (180 μg weekly) weeks 1-12 (GT2/GT3 treatment-naïve).
In Part 2 of the ELECTRON trial, an additional 30 patients were enrolled in exploratory regimens of GS-7977 monotherapy and abbreviated durations of total therapy with the combination of GS-7977, RBV and PEG:
Group 5: GS-7977 (400 mg QD) monotherapy for 12 weeks (GT2/GT3 treatment-naïve);
Group 6: GS-7977 (400 mg QD) with PEG (180 μg weekly) and RBV (1000/1200 mg BID) for 8 weeks (GT2/GT3 treatment-naïve); and
Group 10: GS-7977 (400 mg QD) with RBV (1000/1200 mg BID) for 8 weeks (GT2/GT3 treatment-naïve); and […]

[2] = system: 1b con-1-based chimeric replicon containing 5a NS5B, wild-type; assay: Transient replicon assay; format: cell-based; conditions: Hepatitis C virus, read-out: EC50 WT
Description: (§1) (Lam et al., J. Virology (2011) 85(23): 12334-12342; Lam et al., Antimicrob. Agents Chemother. (2012) 56(6): 3359-3368.) S282T mutations in NS5B were created by site-directed mutagenesis in 1a-H77, 1b con-1, and 2a JFH1 sub-genomic replicons. 1b con-1-based chimeric replicons containing 2b, 3a, 4a, 5a, or 6a NS5B were also engineered to harbor the S282T mutation. […] Relative percentages of mutant and WT were assessed by deep sequencing.

[3] = system: 1a-H77 sub-genomic replicon, wild-type NS5B; assay: Transient replicon assay; format: cell-based; conditions: Hepatitis C virus, read-out: EC50 WT
Description: as §1

[4] = ELECTRON adverse events (Groups 1,7,8,9 N=70; Groups 2,3,4 N=30; Group 5 N=10; Group 6 N=10); format: in vivo, human; conditions: subjects with event
[5] = system: 1a-H77 sub-genomic replicon, NS5B S282T; assay: microbe, parasite or virus in culture; format: cell-based, hepatitis C virus
Description: as §1

For `CC(C)OC(=O)[C@H](C)N[P@](=O)(OC[C@H]1O[C@@H](n2ccc(=O)[nH]c2=O)[C@](C)(F)[C@@H]1O)Oc1ccccc1` [GS-7977, (S)-isopropyl 2-(((S)-(((2R,3R,4R,5R)-5-(2,4-dioxo-3,4-dihydropyrimidin-1(2H)-yl)-4-fluoro-3-hydroxy-4-methyltetrahydrofuran-2-yl)methoxy)(phenoxy)phosphoryl)amino)propanoate], the “Alanine aminotransferase Grade 3: n” value [1] was 0, the “Hemoglobin Grade 3: n” value [1] was 0 and the “INR Grade 3: n” value [1] was 0. For the same compound, the “Lymphocytes Grade 3: n” value [1] was 0, the “Lymphocytes Grade 4: %” value [1] was 10% and the “Lymphocytes Grade 4: n” value [1] was 1. The “Neutropenia Grade 3: n” value [1] was 0, the “Neutropenia Grade 4: n” value [1] was 0 and the “White blood cells Grade 3: n” value [1] was 0. For the same compound, the “HCV RNA (log10 IU/mL), mean” value (HCV GT2 or GT3; D1) was 5.74 log10 IU/mL, the “HCV RNA (log10 IU/mL), mean” value (HCV GT2 or GT3; D1 (6 hr) after dosing) was 5.63 log10 IU/mL and the “HCV RNA (log10 IU/mL), mean” value (HCV GT2 or GT3; D1 (12 hr) after dosing) was 4.98 log10 IU/mL. The “HCV RNA (log10 IU/mL), mean” value (HCV GT2 or GT3; D2) was 3.75 log10 IU/mL, the “HCV RNA (log10 IU/mL), mean” value (HCV GT2 or GT3; D3) was 2.62 log10 IU/mL and the “HCV RNA (log10 IU/mL), mean” value (HCV GT2 or GT3; T = 0 (initial screening values)) was 6.08 log10 IU/mL. For the same compound, the “HCV RNA (log10 IU/mL), mean” value (HCV GT2 or GT3; W1) was 1.56 log10 IU/mL, the “HCV RNA (log10 IU/mL), mean” value (HCV GT2 or GT3; W2) was 1.22 log10 IU/mL and the “HCV RNA (log10 IU/mL), mean” value (HCV GT2 or GT3; W3) was 1.15 log10 IU/mL. For the same compound, the “HCV RNA (log10 IU/mL), mean” value (HCV GT2 or GT3; W4) was 1.15 log10 IU/mL, the “HCV RNA (log10 IU/mL), mean” value (HCV GT2 or GT3; W5) was 1.15 log10 IU/mL and the “HCV RNA (log10 IU/mL), mean” value (HCV GT2 or GT3; W6) was 1.15 log10 IU/mL. The “HCV RNA (log10 IU/mL), mean” value (HCV GT2 or GT3; W7) was 1.15 log10 IU/mL, the “HCV RNA (log10 IU/mL), mean” value (HCV GT2 or GT3; W8) was 1.15 log10 IU/mL and the “HCV RNA (log10 IU/mL), mean” value (HCV GT2 or GT3; W9) was 1.15 log10 IU/mL. For the same compound, the “HCV RNA (log10 IU/mL), mean” value (HCV GT2 or GT3; W10) was 1.15 log10 IU/mL, the “HCV RNA (log10 IU/mL), mean” value (HCV GT2 or GT3; W11) was 1.15 log10 IU/mL and the “HCV RNA (log10 IU/mL), mean” value (HCV GT2 or GT3; W12 (end of treatment)) was 1.15 log10 IU/mL. For the same compound, the “HCV RNA (log10 IU/mL), mean” value (HCV GT2 or GT3; W14 (after 12-week treatment)) was 1.66 log10 IU/mL, the “HCV RNA (log10 IU/mL), mean” value (HCV GT2 or GT3; W16 (after 12-week treatment)) was 2.95 log10 IU/mL and the “HCV RNA (log10 IU/mL), mean” value (HCV GT2 or GT3; W20 (after 12-week treatment)) was 3.12 log10 IU/mL. The “HCV RNA (log10 IU/mL), mean” value (HCV GT2 or GT3; W24 (12 weeks after treatment)) was 3.17 log10 IU/mL, the “HCV RNA below LOD, %” value (HCV GT2 or GT3; SVR-4) was “(60) %” and the “HCV RNA below LOD, %” value (HCV GT2 or GT3; SVR-12) was “(60) %”. For the same compound, the “HCV RNA below LOD, %” value (HCV GT2 or GT3; Time 1 wk) was “(50) %”, the “HCV RNA below LOD, %” value (HCV GT2 or GT3; Time 2 wks) was “(80) %” and the “HCV RNA below LOD, %” value (HCV GT2 or GT3; Time 3 wks) was “(100) %”. For the same compound, the “HCV RNA below LOD, %” value (HCV GT2 or GT3; Time 4 wks) was “(100) %”, the “HCV RNA below LOD, %” value (HCV GT2 or GT3; Time 8 wks) was “(100) %” and the “HCV RNA below LOD, %” value (HCV GT2 or GT3; Time 12 wks) was “(100) %”. For the same compound, the “% < LOD” value (HCV GT2 or GT3; SVR-4) was 60%, the “n/N < LOD” value (HCV GT2 or GT3; SVR-4) was 6/10 and the “% < LOD” value (HCV GT2 or GT3; SVR-8) was 60%. The “n/N < LOD” value (HCV GT2 or GT3; SVR-8) was 6/10, the “% < LOD” value (HCV GT2 or GT3; SVR-12) was 60% and the “n/N < LOD” value (HCV GT2 or GT3; SVR-12) was 6/10. The “% < LOD” value (HCV GT2 or GT3; SVR-24) was 60%, the “n/N < LOD” value (HCV GT2 or GT3; SVR-24) was 6/10 and the “% < LOD” value (HCV GT2 or GT3; Time 0 wks) was 0%. For the same compound, the “% < LOD” value (HCV GT2 or GT3; Time 4 wks) was 100%, the “n/N < LOD” value (HCV GT2 or GT3; Time 4 wks) was 10/10 and the “% < LOD” value (HCV GT2 or GT3; Time 8 wks) was 100%. For the same compound, the “n/N < LOD” value (HCV GT2 or GT3; Time 8 wks) was 10/10, the “% < LOD” value (HCV GT2 or GT3; Time 12 wks) was 100% and the “n/N < LOD” value (HCV GT2 or GT3; Time 12 wks) was 10/10. It also gave an SVR-24 (HCV GT2 or GT3; treatment-naive GT2/GT3, 12 weeks GS-7977 400 mg QD) of 60%, an SVR-12 (HCV GT2 or GT3; treatment-naive GT2/GT3 HCV patients, GS-7977 400 mg QD) of 60% and a pEC50 [2] of 8.00. The pEC50 [3] was 7.60, the “Abdominl Pain: n” value [4] was 0 and the “Alopecia: n” value [4] was 0. For the same compound, the “Anemia: n” value [4] was 0, the “Arthralgia: n” value [4] was 0 and the “Axillary Pain: %” value [4] was “(20) %”. For the same compound, the “Axillary Pain: n” value [4] was 2, the “Back Pain: %” value [4] was “(10) %” and the “Back Pain: n” value [4] was 1. The “Blood and Lymphatic System Disorders: n” value [4] was 0, the “Chills: n” value [4] was 0 and the “Decreased Appetite: n” value [4] was 0. For the same compound, the “Diarrhoea: n” value [4] was 0, the “Dizziness Postural: n” value [4] was 0 and the “Dizziness: %” value [4] was “(20) %”. The “Dizziness: n” value [4] was 2, the “Dry Skin: n” value [4] was 0 and the “Dyspnoea: n” value [4] was 0. The “Fatigue: %” value [4] was “(30) %”, the “Fatigue: n” value [4] was 3 and the “Flatulence: n” value [4] was 0. The “Gastrointestinal Disorders: %” value [4] was “(80) %”, the “Gastrointestinal Disorders: n” value [4] was 8 and the “General Disorders and Administration Site Conditions: %” value [4] was “(80) %”. For the same compound, the “General Disorders and Administration Site Conditions: n” value [4] was 8, the “Headache: %” value [4] was “(80) %” and the “Headache: n” value [4] was 8. The “Infections and Infestations: %” value [4] was “(50) %”, the “Infections and Infestations: n” value [4] was 5 and the “Injection Site Erythema: n” value [4] was 0. The “Insomnia: %” value [4] was “(60) %”, the “Insomnia: n” value [4] was 6 and the “Irritability: %” value [4] was “(10) %”. The “Irritability: n” value [4] was 1, the “Metabolism and Nutrition Disorders: n” value [4] was 0 and the “Musculoskeletal and Connective Tissue Disorders: %” value [4] was “(20) %”. The “Musculoskeletal and Connective Tissue Disorders: n” value [4] was 2, the “Myalgia: %” value [4] was “(10) %” and the “Myalgia: n” value [4] was 1. The “Nausea: %” value [4] was “(30) %”, the “Nausea: n” value [4] was 3 and the “Nervous System Disorders: %” value [4] was “(90) %”. For the same compound, the “Nervous System Disorders: n” value [4] was 9, the “Oropharyngeal Pain: %” value [4] was “(20) %” and the “Oropharyngeal Pain: n” value [4] was 2. For the same compound, the “Pain: n” value [4] was 0, the “Pruritus: n” value [4] was 0 and the “Psychiatric Disorders: %” value [4] was “(60) %”. The “Psychiatric Disorders: n” value [4] was 6, the “Pyrexia: n” value [4] was 0 and the “Rash: %” value [4] was “(10) %”. The “Rash: n” value [4] was 1, the “Respiratory, Thoracic and Mediastinal Disorders: %” value [4] was “(30) %” and the “Respiratory, Thoracic and Mediastinal Disorders: n” value [4] was 3. For the same compound, the “Skin and Subcutaneous Tissue Disorders: %” value [4] was “(30) %”, the “Skin and Subcutaneous Tissue Disorders: n” value [4] was 3 and the “Upper Respiratory Tract Infection: %” value [4] was “(20) %”. The “Upper Respiratory Tract Infection: n” value [4] was 2, the “≧1 AE: %” value [4] was “(100) %” and the “≧1 AE: n” value [4] was 10. For the same compound, the pEC50 ([5]; Hepatitis C virus, read-out: EC50 S282T) was 6.60 and the “Fold Change” value ([5]; genotype 1a, S282T from corresponding wild-type) was 10.1.
